Source: US20240391926A1, “SPIROINDOLINONE COMPOUNDS AS Kv1.3 POTASSIUM SHAKER CHANNEL BLOCKERS” (D.E. Shaw Research, LLC, priority 2021, published 2024)

Columns and labels:
[1] = target: T1, hERG channel (Homo sapiens, UniProt Q12809); experiment: hERG electrophysiology, automated whole-cell patch clamp (Patchliner) in CHO-K1 cells stably expressing hERG; type: cell-based; settings: 30 nM-100 μM
T1 construct: expressed in transfected cells
Procedure: This assay is used to evaluate the disclosed compounds' inhibition activities against the hERG channel.
CHO-K1 cells stably expressing hERG were grown in Ham's F-12 Medium with glutamine containing 10% heat-inactivated FBS, 1% penicillin/streptomycin, hygromycin (100 μg/ml) and G418 (100 μg/ml). Cells were grown in culture flasks at 37° C. in a 5% CO2-humidified incubator.
The cells were bathed in an extracellular solution containing 140 mM NaCl, 4 mM KCl, 2 mM CaCl2), 1 mM MgCl2, 5 mM Glucose, 10 mM HEPES; pH adjusted to 7.4 with NaOH; 295-305 mOsm. The internal solution contained 50 mM KCl, 10 mM NaCl, 60 mM KF, 20 mM EGTA, 10 mM HEPES; pH adjusted to 7.2 with KOH; 285 mOsm. All compounds were dissolved in DMSO at 30 mM. Compound stock solutions were freshly diluted with external solution to concentrations of 30 nM, 100 nM, 300 nM, 1 μM, 3 μM, 10 μM, 30 μM and 100 μM. The highest content of DMSO (0.3%) was present in 100 μM.
The voltage protocol (see Table B) was designed to simulate voltage changes during a cardiac action potential with a 300 ms depolarization to +20 mV (analogous to the plateau phase of the cardiac action potential), a repolarization for 300 ms to −50 mV (inducing a tail current) and a final step to the holding potential of −80 mV. The pulse frequency was 0.3 Hz. Control (compound-free) and compound pulse trains for each compound concentration applied contained 70 pulses.
Whole-cell current recordings and compound application were enabled by means of an automated patch clamp platform Patchliner (Nanion). EPC 10 patch clamp amplifier (HEKA) along with Patchmaster software (HEKA Elektronik Dr. Schulze GmbH) was used for data acquisition. Data were sampled at 10 kHz without filtering. Increasing compound concentrations were applied consecutively to the same cell without washouts in between.
AUC and PEAK values were obtained with Patchmaster (HEKA Elektronik Dr. Schulze GmbH). To determine IC50 the last single pulse in the pulse train corresponding to a given compound concentration was used. Obtained AUC and PEAK values in the presence of compound were normalized to control values in the absence of compound. Using Origin (OridinLab), IC50 was derived from data fit to Hill equation: Icompound/Icontrol=(100−A)/(1+([compound]/IC50)nH)+A, where IC50 is the concentration at which current inhibition is half-maximal, [compound] is the applied compound concentration, A is the fraction of current that is not blocked and nH is the Hill coefficient.

[2] = target: T2, Kv1.3 potassium channel (Homo sapiens, UniProt P22001); experiment: Kv1.3 potassium channel blocker activity, automated whole-cell patch clamp (Patchliner) in CHO-K1 cells stably expressing Kv1.3; type: cell-based; settings: 30 nM-100 μM
T2 construct: expressed in transfected cells
T2 sequence (P22001 whole entry): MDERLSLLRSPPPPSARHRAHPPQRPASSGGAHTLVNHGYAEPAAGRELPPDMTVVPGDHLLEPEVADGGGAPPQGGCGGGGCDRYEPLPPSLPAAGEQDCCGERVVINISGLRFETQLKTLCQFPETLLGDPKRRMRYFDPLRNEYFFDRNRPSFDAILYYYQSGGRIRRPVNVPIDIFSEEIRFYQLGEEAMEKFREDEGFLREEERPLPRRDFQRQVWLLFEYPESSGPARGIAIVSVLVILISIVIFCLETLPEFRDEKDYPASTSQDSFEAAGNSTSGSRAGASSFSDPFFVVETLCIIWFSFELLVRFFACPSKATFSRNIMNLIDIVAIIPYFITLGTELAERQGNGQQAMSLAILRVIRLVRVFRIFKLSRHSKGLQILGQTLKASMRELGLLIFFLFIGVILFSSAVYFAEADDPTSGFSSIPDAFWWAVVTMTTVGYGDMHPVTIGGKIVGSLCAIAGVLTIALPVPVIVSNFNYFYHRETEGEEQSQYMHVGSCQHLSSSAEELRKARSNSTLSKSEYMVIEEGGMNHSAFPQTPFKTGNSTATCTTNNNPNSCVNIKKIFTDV
How it was run: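 Whole-cell automated patch clamp in CHO-K1 cells, pH 7.4 external/7.2 internal; 100 ms steps from −90 to +40 mV at 0.1 Hz, 20-pulse trains. Cumulative 30 nM–100 μM on one cell, ≤10 s per concentration; last-pulse current normalized to control, IC50 from Hill fit.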

T1 sequence (Q12809 whole entry): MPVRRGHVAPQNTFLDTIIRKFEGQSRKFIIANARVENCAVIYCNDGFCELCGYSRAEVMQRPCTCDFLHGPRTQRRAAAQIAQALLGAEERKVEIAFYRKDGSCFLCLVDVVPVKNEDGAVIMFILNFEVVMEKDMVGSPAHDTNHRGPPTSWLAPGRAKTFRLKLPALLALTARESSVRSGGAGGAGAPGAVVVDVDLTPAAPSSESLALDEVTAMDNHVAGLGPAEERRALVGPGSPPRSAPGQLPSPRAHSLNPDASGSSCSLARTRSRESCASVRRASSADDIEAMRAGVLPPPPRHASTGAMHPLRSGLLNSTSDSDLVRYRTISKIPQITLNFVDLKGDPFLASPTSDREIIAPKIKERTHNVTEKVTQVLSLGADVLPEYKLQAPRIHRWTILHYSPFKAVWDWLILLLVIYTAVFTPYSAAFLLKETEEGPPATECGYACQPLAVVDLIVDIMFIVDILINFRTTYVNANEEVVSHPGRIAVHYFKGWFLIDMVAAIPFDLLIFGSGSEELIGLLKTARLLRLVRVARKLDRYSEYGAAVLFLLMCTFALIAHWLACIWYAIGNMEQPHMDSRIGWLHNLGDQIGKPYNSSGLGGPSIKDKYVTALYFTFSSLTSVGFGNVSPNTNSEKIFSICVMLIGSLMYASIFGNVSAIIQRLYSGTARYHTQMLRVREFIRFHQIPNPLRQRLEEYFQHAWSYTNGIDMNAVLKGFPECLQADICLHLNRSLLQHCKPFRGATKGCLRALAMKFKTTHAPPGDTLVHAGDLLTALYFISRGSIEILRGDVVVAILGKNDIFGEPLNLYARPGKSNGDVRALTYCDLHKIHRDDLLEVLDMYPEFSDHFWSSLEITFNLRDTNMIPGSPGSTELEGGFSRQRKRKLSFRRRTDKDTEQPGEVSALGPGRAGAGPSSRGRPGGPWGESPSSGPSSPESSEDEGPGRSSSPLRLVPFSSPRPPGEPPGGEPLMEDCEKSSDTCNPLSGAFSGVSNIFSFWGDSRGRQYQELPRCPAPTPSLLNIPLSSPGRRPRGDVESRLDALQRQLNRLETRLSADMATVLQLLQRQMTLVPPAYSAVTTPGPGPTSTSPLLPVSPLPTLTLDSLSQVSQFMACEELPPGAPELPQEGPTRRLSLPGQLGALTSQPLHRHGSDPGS

| Structure (SMILES) | IC50 [2] [nM] | IC50 [1] [µM] |
| --- | --- | --- |
| O=C(C1CNC1)N1CC[C@]2(C1)C(=O)Nc1cc(Cl)c(Cl)cc12 [Compound 8, (S)-1′-(azetidine-3-carbonyl)-5,6-dichlorospiro[indoline-3,3′-pyrrolidin]-2-one] | < 1000 | > 100 |
| O=C(c1cn[nH]c1)N1CC[C@]2(C1)C(=O)Nc1cc(Cl)c(Cl)cc12 [Compound 35, (S)-5,6-dichloro-1′-(1H-pyrazole-4-carbonyl)spiro[indoline-3,3′-pyrrolidin]-2-one] | < 1000 | > 100 |
| O=C(N1CC[C@]2(C1)C(=O)Nc1cc(Cl)c(Cl)cc12)C1(F)CCNC1 (single isomer, unassigned; isomer 1) [Compound 29] | < 300 | > 3 |
| Cc1c(Cl)c(Cl)cc2c1NC(=O)[C@@]21CCN(C(=O)CO)C1 [Compound 129, (3S)-5,6-dichloro-1′-(2-hydroxyacetyl)-7-methyl-1H-spiro[indole-3,3′-pyrrolidin]-2-one] | < 300 | > 100 |
| C[C@@H]1NCC[C@H]1C(=O)N1CC[C@]2(C1)C(=O)Nc1cc(Cl)c(Cl)cc12 (single isomer, unassigned; isomer 1) [Compound 39] | < 300 | > 100 |
| O=C(CO)N1CC[C@]2(C1)C(=O)Nc1cc(Cl)c(Cl)cc12 [Compound 6, (S)-5,6-dichloro-1′-(2-hydroxyacetyl)spiro[indoline-3,3′-pyrrolidin]-2-one] | < 1000 | > 100 |
| NCCC(=O)N1CC[C@]2(C1)C(=O)Nc1cc(Cl)c(Cl)cc12 [Compound 9, (S)-1′-(3-aminopropanoyl)-5,6-dichlorospiro[indoline-3,3′-pyrrolidin]-2-one] | < 1000 | > 100 |
| O=C([C@H]1CCNC1)N1CC[C@]2(C1)C(=O)Nc1cc(Cl)c(Cl)cc12 [Compound 15, (S)-5,6-dichloro-1′-((S)-pyrrolidine-3-carbonyl)spiro[indoline-3,3′-pyrrolidin]-2-one] | < 1000 | > 100 |
| O=C([C@@H]1CCN(CCO)C1)N1CC[C@]2(C1)C(=O)Nc1cc(Cl)c(Cl)cc12 (single isomer, unassigned; isomer 2) [Compound 38] | < 300 | > 100 |
| Cc1cc2c(cc1Cl)[C@]1(CCN(C(=O)CO)C1)C(=O)N2 [Compound 120, (S)-5-chloro-1′-(2-hydroxyacetyl)-6-methylspiro[indoline-3,3′-pyrrolidin]-2-one] | < 3000 | > 100 |
| O=C1Nc2cc(Cl)c(Cl)cc2[C@]12CCN(C(=O)[C@H]1CC[C@H](O)CC1)C2 [Compound 52, (S)-5,6-dichloro-1′-((1r,4S)-4-hydroxycyclohexane-1-carbonyl)Spiro[indoline-3,3′-pyrrolidin]-2-one] | < 1000 | > 30 |

Now from value to compound, other results behind:

| IC50 [2] [nM] | Structure (SMILES) | IC50 [1] [µM] |
| --- | --- | --- |
| < 300 | O=C(C[C@H]1CCNC1)N1CC[C@]2(C1)C(=O)Nc1cc(Cl)c(Cl)cc12 [Compound 62, (S)-5,6-dichloro-1′-(2-((R)-pyrrolidin-3-yl)acetyl)spiro[indoline-3,3′-pyrrolidin]-2-one] | > 100 |
| < 3000 | O=C(c1cc[nH]n1)N1CC[C@]2(C1)C(=O)Nc1cc(Cl)c(Cl)cc12 [Compound 53, (S)-5,6-dichloro-1′-(1H-pyrazole-3-carbonyl)spiro[indoline-3,3′-pyrrolidin]-2-one] | > 10 |
| < 100 | O=C([C@@H]1CN[C@H](CO)C1)N1CC[C@]2(C1)C(=O)Nc1cc(Cl)c(Cl)cc12 [Compound 113, (3S)-5,6-dichloro-1-[(3S,53)-5-(hydroxymethyl)pyrrolidine-3-carbonyl]-1H-spiro[indole-3,3-pyrrolidin]-2-one] | > 100 |
| < 300 | O=C([C@H]1CN[C@H](CO)C1)N1CC[C@]2(C1)C(=O)Nc1cc(Cl)c(Cl)cc12 [Compound 114, (3S)-5,6-dichloro-1′-[(3R,5S)-5-(hydroxymethyl)pyrrolidine-3-carbonyl]-1H-spiro[indole-3,3′-pyrrolidin]-2-one] | > 100 |
| < 300 | O=C(C1CCN(CCO)C1)N1CC[C@]2(C1)C(=O)Nc1cc(Cl)c(Cl)cc12 (single isomer, unassigned; isomer 1) [Compound 37] | > 100 |
| < 300 | C[C@H]1NCC[C@@H]1C(=O)N1CC[C@]2(C1)C(=O)Nc1cc(Cl)c(Cl)cc12 (relative stereo) [Compound 40, (S)-5,6-dichloro-1′-((2S,3R)-rel-2-methylpyrrolidine-3-carbonyl)spiro[indoline-3,3′-pyrrolidin]-2-one isomer 2] | > 100 |
| < 300 | O=C(CO)N1CC[C@]2(C1)C(=O)Nc1c2cc(Cl)c(Cl)c1F [Compound 128, (S)-5,6-dichloro-7-fluoro-1′-(2-hydroxyacetyl)spiro[indoline-3,3′-pyrrolidin]-2-one] | > 100 |
| < 100 | O=C([C@@H]1CNC[C@H]1O)N1CC[C@]2(C1)C(=O)Nc1cc(Cl)c(Cl)cc12 (single isomer, unassigned) [Compound 3] | > 100 |
| < 100 | O=C([C@@H]1CN[C@@H](CO)C1)N1CC[C@]2(C1)C(=O)Nc1cc(Cl)c(Cl)cc12 [Compound 115, (S)-5,6-dichloro-1′-((3S,5R)-5-(hydroxymethyl)pyrrolidine-3-carbonyl)spiro[indoline-3,3′-pyrrolidin]-2-one] | > 100 |
| < 1000 | O=C(c1ccnc(CO)c1)N1CC[C@]2(C1)C(=O)Nc1cc(Cl)c(Cl)cc12 [Compound 67, (S)-5,6-dichloro-1′-(2-(hydroxymethyl)isonicotinoyl)spiro[indoline-3,3′-pyrrolidin]-2-one] | > 100 |
| < 300 | O=C(C[C@@H]1CCNC1)N1CC[C@]2(C1)C(=O)Nc1cc(Cl)c(Cl)cc12 [Compound 60, (S)-5,6-dichloro-1′-(2-((S)-pyrrolidin-3-yl)acetyl)spiro[indoline-3,3′-pyrrolidin]-2-one] | > 100 |
| < 1000 | NCC(=O)N1CC[C@]2(C1)C(=O)Nc1cc(Cl)c(Cl)cc12 [Compound 5, (S)-5,6-dichloro-1′-glycylspiro[indoline-3,3′-pyrrolidin]-2-one] | > 30 |
| < 300 | O=C([C@@H]1CCCNC1)N1CC[C@]2(C1)C(=O)Nc1cc(Cl)c(Cl)cc12 [Compound 17, (S)-5,6-dichloro-1′-((R)-piperidine-3-carbonyl)spiro[indoline-3,3′-pyrrolidin]-2-one] | > 100 |
| < 300 | O=C([C@@H]1C[C@@H](O)[C@@H](O)C1)N1CC[C@]2(C1)C(=O)Nc1cc(Cl)c(Cl)cc12 [Compound 101, (3S)-5,6-dichloro-1′-[(1S,3R,4S)-3,4-dihydroxycyclopentanecarbonyl]-1H-spiro[indole-3,3′-pyrrolidin]-2-one] | > 100 |
| < 1000 | O=C1Nc2cc(Cl)c(Cl)cc2[C@]12CCN(C(=O)[C@H]1C[C@](O)(CO)C1)C2 [Compound 93, (3S)-5,6-dichloro-1′-[(1r,3r)-3-hydroxy-3-(hydroxymethyl)cyclobutanecarbonyl]-1H-spiro[indole-3,3′-pyrrolidin]-2-one] | > 100 |
